According to publication PMC11660126, “Demethylzeylasteral inhibits oxidative phosphorylation complex biogenesis by targeting LRPPRC in lung cancer” (Journal of Cancer, 2025):

Target: T1, LRPPRC (Leucine-rich pentatricopeptide repeat-containing protein) (Homo sapiens, UniProt P42704)
T1 construct: GST fusion)
Assay: Intrinsic fluorescence quenching titration of purified LRPPRCΔ[…]; confirmed by BLI (KD […]) and CETSA in A549 and H1299 cells
Assay type: binding

T1 sequence (P42704 1121-1394): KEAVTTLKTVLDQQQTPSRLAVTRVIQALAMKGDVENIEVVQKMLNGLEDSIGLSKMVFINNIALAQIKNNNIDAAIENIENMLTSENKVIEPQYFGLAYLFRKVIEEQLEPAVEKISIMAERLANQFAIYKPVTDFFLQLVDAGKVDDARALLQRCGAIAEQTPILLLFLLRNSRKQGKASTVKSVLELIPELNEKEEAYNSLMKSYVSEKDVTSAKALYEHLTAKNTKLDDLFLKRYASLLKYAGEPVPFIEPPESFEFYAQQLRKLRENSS

Compound `C[C@@]1(C(=O)O)CC[C@]2(C)CC[C@]3(C)C4=CC(=O)c5c(cc(O)c(O)c5C=O)[C@]4(C)CC[C@@]3(C)[C@@H]2C1` [T-96, Demethylzeylasteral] has a Kd of 21.4 µM.
